One test concerns the target T1, human recombinant A3AR (Homo sapiens, UniProt P0DMS8).
T1 construct: expressed in transfected cells; membrane preparation
T1 sequence (P0DMS8 1-318): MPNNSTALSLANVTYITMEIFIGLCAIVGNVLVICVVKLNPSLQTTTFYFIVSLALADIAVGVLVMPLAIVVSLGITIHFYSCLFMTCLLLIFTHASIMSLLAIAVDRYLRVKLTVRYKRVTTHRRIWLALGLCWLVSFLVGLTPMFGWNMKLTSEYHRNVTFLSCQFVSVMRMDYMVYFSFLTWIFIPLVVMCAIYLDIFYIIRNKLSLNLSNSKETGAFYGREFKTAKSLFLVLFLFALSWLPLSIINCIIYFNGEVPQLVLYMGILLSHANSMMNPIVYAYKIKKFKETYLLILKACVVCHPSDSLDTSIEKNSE
Kind of test: Radioligand binding at human A3AR ([3H]HEMADO displacement, CHO cell membranes). The note with it: displacement of [3H]HEMADO, n = 3–5, means ± standard errors. The method, then:
The affinities of the newly synthesized compounds 7–13 and 17–21 were determined in binding studies at human recombinant A1, A2A, and A3 ARs, stably transfected in Chinese hamster ovary (CHO) cells, using [^3H]CCPA (2-chloro-N^6-cyclopentylAdo), [^3H]NECA (5′-N-ethylcarboxamidoAdo), and [^3H]HEMADO (2-hexynyl-N^6-methylAdo) as respective radioligands. Most of the compounds were also evaluated at A2BARs in a functional study using the GloSensor cAMP assay. The results are reported in Table 1 as Ki values in nM (± standard errors). In the case of A2BARs, Ki-values were calculated from IC50-values determined by the inhibition of NECA-stimulated adenylyl cyclase activity.
Cell culture: The Chinese hamster ovary cells (CHO) stably transfected with the desired ARs were grown in DMEM/F12 medium containing 10% FBS (fetal bovine serum), 100 U/mL penicillin, 100 µg/mL streptomycin, 2.5 μg/mL amphotericin B, 1 mM sodium pyruvate, 0.1 mg/mL genetecina (G418), and incubated at 37 °C in a gaseous mixture of 5% CO2: […].
Preparation of membranes: Cell membranes for binding assays were prepared mechanically detaching the cells from the petri and suspending them in a cold hypotonic buffer (5 mM Tris/HCl, 2 mM EDTA, pH 7.4). The cell suspension was homogenized (Ultra-Turrax, 2 × 15 s at maximum speed) and the homogenate centrifuged for 10 min (4 °C) to 1000× g. The supernatant was subsequently centrifuged for 30 min (4 °C) at 100,000× g and the pellet containing the membrane proteins was re-suspended in a specific buffer for each receptor subtype (A1: 50 mM Tris/HCl, pH 7.4; A2A: 50 mM Tris/HCl, 10 mM MgCl2, pH 7.4; A3: 50 mM Tris/HCl, 10 mM MgCl2, 1 mM EDTA, pH 8.25). The amount of the protein suspension was determined according to the […] using the BCA Protein Assay Kit (Pierce), frozen in liquid nitrogen, and stored at −80 °C.
Binding assays: The dissociation constants of the radioligand (KD) were calculated through saturation assays, while the dissociation constants of the compounds under study (Ki) were determined by competition experiments. All binding data were calculated by nonlinear regression curves using the software GraphPad Prism 5 (GraphPad Software, San Diego, CA, USA). The increasing concentrations of the radioligand saturation binding ([^3H]-CCPA for the A1 receptor subtype, [^3H]-NECA for the A2A receptor subtype, and [^3H]-HEMADO for the A3 receptor) subtype were incubated in a total volume of 250 μL containing 0.2 U/mL of Ado deaminase (ADA) and 12 micrograms of membrane proteins in the specific buffer. In competition experiments for the A1 receptor subtype, each compound was added at increasing concentrations, to the well containing 1 nM of [^3H]-CCPA, to a final volume of 200 μL. The samples were left to incubate for 3 h at room temperature, filtered in a filter 96-well plate (UniFilter GF/C, Perkin-Elmer Life and Analytical Science, Boston, MA) using the FilterMate Cell Harvester (Perkin-Elmer), and washed 3 times with cold distilled water. After drying the filter plate at 40 °C for 30′, they 20 μL of scintillating liquid (Microscint-20, Perkin-Elmer) was added to each well, and then the radioactivity was quantized with the MicroBeta2 Plate Counter (Perkin-Elmer). The conditions for binding experiments at A2A and A3 receptor subtypes were essentially the same as for the A1AR using [^3H]-NECA (N-ethylcarboxyamideAdo) at a concentration of 10 nM and [^3H]-HEMADO (2-(1-hexyne)-N^6-methylAdo) at a concentration of 1 nM as radioligands, respectively. The samples were incubated with 12 micrograms of protein for 3 h at room temperature and filtered as described above.
The non-specific binding was determined in the presence of 1 mM theophylline for the A1AR, or 100 µM R-PIA (N^6-(1-methyl-2-phenylethyl)Ado) for the A2A and A3 receptors.
For orientation: Loss of bound radioactivity is the signal in a displacement assay; it reports binding, not function.

The subject of test [1] is BV-2 murine microglial cells. Kind of test: NO production (Griess assay) in LPS-activated BV-2 cells. The class given is cell-based. To be noted: then 100 ng/mL LPS for 24 h. On the procedure:
To determine the effects of 13 on LPS-induced inflammatory mediators, we initially evaluated the production of NO. BV-2 cells were treated with different concentrations of 13, then, were exposed to 100 ng/mL LPS for 24 h, and the release of NO in the culture medium was measured by Griess assay (Figure 4B).
Cell Cultures and Treatments: BV-2 murine microglial cells (a gift from Prof. Elisabetta Blasi of the University of Modena and Reggio Emilia, Modena, Italy) were maintained at 37 °C and 5% CO2 in a humidified incubator and grown in DMEM supplemented with 10% (v/v) low-endotoxin fetal bovine serum (Euroclone—Milan, Italy), 2 mM L-glutamine, 50 U/mL penicillin, and 50 μg/mL streptomycin (Sigma-Aldrich–Merck, Milan, Italy). […]
Measurement of NO Production: The amount of nitrite accumulation in the culture medium of BV-2 cells was measured using Griess reagent. […] The NO concentration was evaluated by measuring the absorbance at 540 nm with a 96-well microplate spectrophotometer (VICTOR3 V Multilabel Counter; PerkinElmer). Concentration of nitrites released in the medium was determined from the standard curve generated with known concentrations of sodium nitrite. Results are expressed as mean concentration of nitrites (μM) ± SEM, from three different samples.
Background: Nitrite, measured by Griess reagent, commonly stands in for NO production.

We go through 1 molecule from publication PMC9032385, “A2A Adenosine Receptor Antagonists: Are Triazolotriazine and Purine Scaffolds Interchangeable?” (Molecules, 2022).

In general, Ki refers to the equilibrium dissociation constant of an inhibitor or competing ligand from its target. With `CCn1c(-c2ccco2)nc2c(N)nc(NCCc3ccc(O)cc3)nc21` [compound 13, 4-(2-((6-Amino-9-ethyl-8-(furan-2-yl)-9H-purin-2-yl)amino)ethyl)phenol], the Ki on human recombinant A3AR was determined as 0.012 µM. The “NO level in culture medium vs LPS treated cells” value in test [1] (1 nM compound) and in test [1] (10 nM compound) was “significantly reduced the NO level” each time.
